Data reported in patent publication US20070021351A1, “Liver/plasma concentration ratio for dosing hepatitis C virus protease inhibitor” (Schering Corporation, priority 2005, published 2007).

Tests used:
[1] = Example 1: Phase 1 rising-single-dose pharmacokinetic study in healthy adult subjects; assay type: in vivo, human; settings: for DN AUC(I): dose-normalized (to 50 mg); for Tmax: median
Experimental: A Phase 1, randomized, third-party-blind (within dose level), placebo-controlled, rising-single-dose study of compounds of Formulae I-XXVI was conducted in healthy adult subjects.
Nine subjects in each group received either compound of Formula Ia (n=6) or placebo (n=3). Those subjects randomized to active compound received one of the following doses of compound of Formula Ia: 50, 100, 200, 400, 600, or 800 mg.
On Day 1, at least 10 hours prior to compound administration, an overnight fast was maintained until 4 hours following treatment administration, after which lunch was served. During the fasting period, no food or fluid (except noncarbonated water) was permitted; furthermore, drinking water was prohibited from 2 hours predose to 2 hours postdose, with the exception of the approximately 240 mL administered with the treatments.
Blood samples (7 mL each) for the determination of compound of Formula Ia concentrations were collected immediately prior to dosing (0 hour), and at 0.25, 0.5, 0.75, 1, 1.5, 2, 3, 4, 5, 6, 8, 10, 12, 18, 24, 36, 48, 72, and 144 hours postdose. The blood samples were collected into tubes containing EDTA. The samples were separated by centrifugation at 4° C. for 15 minutes at 1500 g to obtain the plasma, and the plasma samples frozen at −20° C. until assayed.
Plasma concentrations of compound of Formula Ia were determined using a validated liquid chromatography tandem mass spectrometry (LC-MS/MS) method. The assay lower limit of quantitation (LLOQ) was 0.50 ng/mL, and the method was validated over the concentration range of 0.50 to 1000 ng/mL.
The mean and percent coefficients of variation (% CV) were calculated for the plasma concentrations of compound of Formula Ia at each time point. Concentration values less than the assay LLOQ were reported as and set to zero in the calculations and tables. The plasma concentration-time data for compound of Formula Ia were subjected to pharmacokinetic analysis by noncompartmental methods using WinNonlin software. Nominal sampling times were used for pharmacokinetic analysis.
For each subject, the following compound of Formula Ia pharmacokinetic parameters were determined: • Cmax Maximum observed plasma concentration • Tmax Time of maximum observed plasma concentration • tf Time of final quantifiable sample • AUC(tf) Area under the plasma concentration-time curve from time 0 to tf • AUC(I) Area under the plasma concentration-time curve from time 0 to infinity [AUC(I)=AUC(tf)+C(tf)estimated/k, where k and C(tf)estimated are terminal elimination rate constant and estimated concentration at final quantifiable sample, respectively] • t½ Terminal-phase half-life (t½=In2/k) • CL/F Apparent total body clearance (CL/F=Dose/AUC[I]) • Vd/F Apparent volume of distribution (Vd/F=CL/F*(t1/2/0.693))
Dose-adjusted (to 50 mg) Cmax, AUC(I), and AUC(tf) values were also calculated. Cmax, Tmax, and tf were the observed values. The terminal phase rate constant (k) was calculated as the negative of the slope of the log-linear terminal portion of the plasma concentration-time curve using linear regression (at least three time points). The number of points needed to determine the terminal phase rate constant was selected by WinNonlin software.
Summary statistics, including means, standard deviations, and coefficients of variation (CV) expressed as a percent, were computed for the single-dose plasma compound of Formula Ia concentration data at each sampling time point and for the derived pharmacokinetic parameters for each dose level using a standard program based on SAS/STAT (Release 6.12; SAS Institute Inc., North Carolina).
The log-transformed dose-adjusted (to 50 mg) Cmax and AUC values of compound of Formula Ia were statistically analyzed using an analysis of variance (ANOVA) model. The effect due to treatment (dose) was extracted. Ninety-five percent confidence intervals (CIs) for the means at each dose level, based on the nontransformed data, were provided. […]

[2] = Liver versus plasma concentration in monkeys (non-GLP assay); assay type: in vivo; settings: about 24 hours after dosing
Experimental: For the purpose of the present invention and the data presented herein, the liver to plasma ratio is calculated by determining the IC90 of a compound and inferring the concentration of the compound in the liver based on the concentration of the compound which causes a 90% decrease in viral load. […] It is known that concentrations of the compounds of Formulae I-XXVI in the liver of rats are about thirty to fifty times greater than plasma concentrations, whereas concentrations in the brain are below detection. In monkeys, concentration of the compound of Formula Ia determined by non-GLP assay of plasma sample taken about 24 hours after dosing of the compound was about five times greater in the liver than in plasma.

[3] = single oral 600 mg, fasted healthy adults, mean, n=6

## CC(C)(C)NC(=O)N[C@H](C(=O)N1C[C@H]2[C@@H]([C@H]1C(=O)NC(CC1CCC1)C(=O)C(N)=O)C2(C)C)C(C)(C)C (mixture of isomers) [Formula Ia, (1R,5S)-N-[3-Amino-1-(Cyclobutylmethyl)-2,3-Dioxopropyl]-3-[2(S)-[[[(1,1-Dimethylethyl)Amino]Carbonyl]Amino]-3,3-Dimethyl-1-Oxobutyl]-6,6-Dimethyl-3-Azabicyclo[3.1.0]Hexan-2(S)-Carboxamide]
[1]; single oral 50 mg, mean, n=6
  DN AUC(I): 181 ng·h/mL
[1]; single oral 100 mg, mean, n=6
  DN AUC(I): 172 ng·h/mL
[1]; single oral 200 mg, mean, n=6
  DN AUC(I): 212 ng·h/mL
[1]; single oral 400 mg, mean, n=6
  DN AUC(I): 195 ng·h/mL
[1]; single oral 600 mg, mean, n=6
  DN AUC(I): 180 ng·h/mL
[1]; single oral 800 mg, mean, n=6
  DN AUC(I): 145 ng·h/mL
[1]; single oral 50 mg, fasted healthy adults, mean, n=6
  AUC(I): 181 ng·h/mL
[1]; single oral 50 mg, fasted healthy adults, n=6
  Tmax: 1.50 h
[1]; single oral 400 mg, fasted healthy adults, mean, n=6
  Cmax: 445 ng/mL
[1]; single oral 400 mg, fasted healthy adults, n=6
  Tmax: 1.75 h
[1]; [3]
  AUC(I): 2158 ng·h/mL
  t½: 10.2 h
[1]; single oral 600 mg, fasted healthy adults, n=6
  Tmax: 2.25 h
[1]; single oral 800 mg, fasted healthy adults, mean, n=6
  AUC(I): 2320 ng·h/mL
[1]; single oral doses 50-800 mg
  dose dependence of Cmax and AUC: increased in a dose-related manner up to the 600 mg dose
[2]
  concentration in liver relative to plasma: about five
